Measured values published in patent US20130165368A1, “ANTIMICROBIAL COMPOUNDS” (priority 2010, published 2013).
Values after ≈ are worked out from the molar mass of the structure shown. Read-outs that look alike come from different tables or passages of the source.

Key:
Format in all cases: cell-based
[1] = tested on: Staphylococcus aureus (MRSA); experiment: MIC agar dilution, micro-organism 12 (11939); conditions: Staphylococcus aureus, MRSA, Staphylococcus aureus (MRSA) 11939, read-out: MIC
Protocol: (§1) Throughout the period of testing the microbial strains were subcultured and incubated for 18-20 hours at 37° C. on a weekly basis. Horse blood agar plates were used to sustain the micro-organisms both prior to and throughout testing. The alkoxylated alkanols listed in Table II below were obtained (these are obtainable from Sigma-Aldrich Company Ltd, Dorset, England), each having a GC purity of at least 97%.
(§2) Molar equivalent concentrations were used to allow comparison between compounds of differing molecular mass. Due to weighing difficulties, any compound in solid form was melted in a water bath prior to dilution. To make ten-times strength concentrations, which takes into account agar dilution, 0.0352 mmol of each compound was weighed into plastic universal bottles and 4 mL of sterile distilled water (SDW) was added. To produce a homogenous emulsion the universals were vortexed; once achieved the emulsions were serial diluted by adding 2 mL to 2 mL of SDW.
(§3) Myristyl alcohol and lauryl alcohol were re-weighed and dissolved in 25 μL of the polar solvent 1-methyl-2-pyrrolidone (M6762; Sigma-Aldrich) in sterile glass universals due to an inability to achieve an even suspension. To maintain an even emulsion in the presence of SDW 37.5 μL of the non-ionic detergent Tween 20 (P1379, Sigma-Aldrich) was also added. 3.9375 mL of SDW was added to these, to create a 4 mL volume; they were vortexed and diluted as before.
(§4) For every 100 mL of Isosensitest agar (IST) (CM0471; Oxoid, Basingstoke, England), 3.1 g of the IST powder was added to 100 mL SDW (as per manufacturer's instructions) and sterilised for 15 minutes at 121° C. Once sterilised, the molten agar was cooled to 50° C. in a water-bath. Subsequently 4.8 g of CCEY powder (BC2160; Bioconnections, Wetherby, England), also known as Brazier's medium, was added to 100 mL SDW for every 100 mL of agar needed. This was then sterilised for 15 minutes at 121° C. Once sterilised the molten agar was cooled to 50° C. in a water-bath and 4 mL of egg-yolk emulsion (S2073; TCS Biosciences Ltd, Buckingham, United Kingdom) and 1 mL of lysed defibrinated horse blood (HB035; TCS Biosciences Ltd, Buckingham, United Kingdom) were also added for every 100 mL needed. Horse blood lysis is achieved by dilution to half concentration with SDW; when fully lysed the mixture will turn dark red in colour.
(§5) 18 mL agar was added to each universal and then poured into sterile Petri dishes. This step creates a 1/10 dilution resulting in agar plates of the required strength. Control plates for each set of strains were created by adding 18 mL of agar to 2 mL of SDW.
(§6) Suspensions of each bacterial species were prepared with a density equal to that of a 0.5 McFarland standard using a densitometer. All suspensions were made using sterile distilled water and fresh 18-20 hour cultures. As a 0.5 McFarland standard contains 1.5×10^8 CFU/mL and the multipoint inoculators applies 1 μL spots of liquid, each bacterial suspension was diluted 1/15 (20 μL suspension to 280 μL sterile distilled water).
(§7) Bacterial suspensions were prepared from fresh 18-24 hour cultures as previously described. 1 μL of each strain was inoculated onto all 100 agar plates containing a different chemical concentration and the 2 control plates. This was done using a multipoint inoculator which inoculates 20 strains per plate. All plates were incubated for 22 hours at 37° C. in aerobic conditions.
(§8) Each plate was examined for bacterial growth after 22 and 48 hours, with each being incubated in between examinations. A positive result was recorded as growth of ≧10 colonies. A negative result was recorded as growth of <10 colonies as this is equivalent to 99.9% inhibition. The lowest concentration of chemical that inhibited growth was recorded as the MIC. The results are recorded in Table IV below, where the numbers are quoted in mmol/L. […]

[2] = tested on: Yersinia enterocolitica; experiment: MIC agar dilution, micro-organism 8 (11176); conditions: Yersinia enterocolitica 11176; 48 hrs; read-out: MIC
Protocol: as §1, §2, §3, §4, §5, §6, §7
(§9) Each plate was examined for bacterial growth after 22 and 48 hours, with each being incubated in between examinations. A positive result was recorded as growth of ≧10 colonies. A negative result was recorded as growth of <10 colonies as this is equivalent to 99.9% inhibition. The lowest concentration of chemical that inhibited growth was recorded as the MIC. The results are recorded in Table IV below, where the numbers are quoted in mmol/L.
(§10) Further experiments have also been conducted to determine the MIC of a number of other compositions as follows. […]

[3] = tested on: Enterobacter cloacae; experiment: MIC agar dilution, micro-organism 4 (11936); conditions: Enterobacter cloacae 11936; 48 hrs; read-out: MIC
Protocol: as §1, §2, §3, §4, §5, §6, §7, §9, §10

[4] = tested on: Staphylococcus epidermidis; experiment: MIC agar dilution, micro-organism 14 (11047); conditions: Staphylococcus epidermidis 11047, read-out: MIC
Protocol: as §1, §2, §3, §4, §5, §6, §7, §8

[5] = tested on: Candida albicans; experiment: MIC agar dilution, micro-organism 19 (90028); conditions: Candida albicans 90028, read-out: MIC
Protocol: as §1, §2, §3, §4, §5, §6, §7, §8

[6] = tested on: Salmonella typhimurium; experiment: MIC agar dilution, micro-organism 6 (74); conditions: Salmonella enterica; Salmonella typhimurium 74; 48 hrs; read-out: MIC
Protocol: as §1, §2, §3, §4, §5, §6, §7, §9, §10

[7] = tested on: Providencia rettgeri; experiment: MIC agar dilution, micro-organism 3 (7475); conditions: Providencia rettgeri 7475, read-out: MIC
Protocol: as §1, §2, §3, §4, §5, §6, §7, §8

[8] = tested on: Burkholderia cepacia; experiment: MIC agar dilution, micro-organism 9 (1222); conditions: Burkholderia cepacia 1222; 48 hrs; read-out: MIC
Protocol: as §1, §2, §3, §4, §5, §6, §7, §9, §10

[9] = tested on: Klebsiella pneumoniae; experiment: MIC agar dilution, micro-organism 2 (9528); conditions: Klebsiella pneumoniae 9528; 48 hrs; read-out: MIC
Protocol: as §1, §2, §3, §4, §5, §6, §7, §9, §10

[10] = tested on: Escherichia coli; experiment: MIC agar dilution, micro-organism 1 (10418); conditions: Escherichia coli 10418, read-out: MIC
Protocol: as §1, §2, §3, §4, §5, §6, §7, §8

[11] = tested on: Pseudomonas aeruginosa; experiment: MIC agar dilution, micro-organism 7 (10662); conditions: Pseudomonas aeruginosa 10662; 48 hrs; read-out: MIC
Protocol: as §1, §2, §3, §4, §5, §6, §7, §9, §10

[12] = tested on: Bacillus subtilis; experiment: MIC agar dilution, micro-organism 18 (9372); conditions: Bacillus subtilis 9372, read-out: MIC
Protocol: as §1, §2, §3, §4, §5, §6, §7, §8

[13] = tested on: Listeria monocytogenes; experiment: MIC agar dilution, micro-organism 15 (11994); conditions: Listeria monocytogenes 11994, read-out: MIC
Protocol: as §1, §2, §3, §4, §5, §6, §7, §8

[14] = tested on: Enterococcus faecium; experiment: MIC agar dilution, micro-organism 16 (7171); conditions: Enterococcus faecium 7171, read-out: MIC
Protocol: as §1, §2, §3, §4, §5, §6, §7, §8

[15] = tested on: Acinetobacter baumannii; experiment: MIC agar dilution, micro-organism 10 (19606); conditions: Acinetobacter baumannii 19606; 48 hrs; read-out: MIC
Protocol: as §1, §2, §3, §4, §5, §6, §7, §9, §10

[16] = tested on: Staphylococcus aureus; experiment: MIC agar dilution, micro-organism 13 (6571); conditions: Staphylococcus aureus, Staphylococcus aureus 6571, read-out: MIC
Protocol: as §1, §2, §3, §4, §5, §6, §7, §8

[17] = tested on: Candida glabrata; experiment: MIC agar dilution, micro-organism 20 (3943); conditions: Nakaseomyces glabratus, Candida glabrata 3943, read-out: MIC
Protocol: as §1, §2, §3, §4, §5, §6, §7, §8

[18] = tested on: Enterococcus faecalis; experiment: MIC agar dilution, micro-organism 17 (775); conditions: Enterococcus faecalis 775, read-out: MIC
Protocol: as §1, §2, §3, §4, §5, §6, §7, §8

[19] = tested on: Serratia marcescens; experiment: MIC agar dilution, micro-organism 5 (10211); conditions: Serratia marcescens 10211; 48 hrs; read-out: MIC
Protocol: as §1, §2, §3, §4, §5, §6, §7, §9, §10

[20] = tested on: Steptococcus pyogenes; experiment: MIC agar dilution, micro-organism 11 (8306); conditions: Steptococcus pyogenes 8306, read-out: MIC
Protocol: as §1, §2, §3, §4, §5, §6, §7, §8

[21] = tested on: Gram negative bacteria, Gram positive bacteria and pathogenic yeasts; experiment: MIC agar dilution, summary statements over the micro-organisms tested (Tables I, IX); conditions: over the micro-organisms tested or some of them; read-out: MIC
Excerpt: For a better understanding, the present invention will now be more particularly described, by way of non-limiting example only, as follows. The micro-organisms shown in Table I overleaf were acquired from the National Collection of Type Cultures (NCTC), Colindale, United Kingdom; the American Type Culture Collection (ATCC), Manassas, United States and the National Collection of Pathogenic Fungi (NCPF), Colindale, United Kingdom. They include Gram negative bacteria, Gram positive bacteria and pathogenic yeasts.
as §1, §2, §3, §4, §5, §6
as §7, with “conditions. […]” for “conditions.”

For `CCCCCCCCCCCCOCC(C)O` (racemic) [PG1, 1-methyl-3-oxapentadecanol], the MIC ([1]; 48 h, 48 hrs) was 880 µM (≈ 215 µg/mL), the MIC [2] was > 880 µM and the MIC [3] was > 880 µM. For the same molecule, the MIC ([4]; 48 hrs) was > 880 µM, the MIC ([5]; 48 hrs) was > 880 µM and the MIC [6] was > 880 µM. For the same molecule, the MIC ([7]; 48 hrs) was 880 µM (≈ 215 µg/mL), the MIC [8] was > 880 µM and the MIC [9] was > 880 µM. The MIC ([10]; 48 hrs) was > 880 µM, the MIC [11] was > 880 µM and the MIC ([12]; 48 hrs) was > 880 µM. For the same molecule, the MIC ([13]; 48 hrs) was > 880 µM, the MIC ([14]; 48 hrs) was > 880 µM and the MIC [15] was > 880 µM. For the same molecule, the MIC ([16]; 48 h, 48 hrs) was > 880 µM, the MIC ([17]; 48 h, 48 hrs) was > 880 µM and the MIC ([18]; 48 hrs) was > 880 µM. For the same molecule, the MIC [19] was > 880 µM and the MIC ([20]; 48 h, 48 hrs) was > 880 µM.

`CCCCCCCCCCOCCO` [D1, Ethylene Glycol Monodecyl Ether, reference compound] was tested, and the MIC ([1]; 22 h, 22 hrs) was > 880 µM, the MIC ([1]; 48 h, 48 hrs) was > 880 µM and the MIC ([4]; 22 hrs) was > 880 µM. For the same molecule, the MIC ([4]; 48 hrs) was > 880 µM, the MIC ([5]; 22 hrs) was > 880 µM and the MIC ([5]; 48 hrs) was > 880 µM. The MIC ([7]; 22 hrs) was > 880 µM, the MIC ([7]; 48 hrs) was > 880 µM and the MIC [21] was > 880 µM. The MIC ([10]; 22 hrs) was > 880 µM, the MIC ([10]; 48 hrs) was > 880 µM and the MIC ([12]; 22 hrs) was > 880 µM. The MIC ([12]; 48 hrs) was > 880 µM, the MIC ([13]; 22 hrs) was > 880 µM and the MIC ([13]; 48 hrs) was > 880 µM. For the same molecule, the MIC ([14]; 22 hrs) was > 880 µM, the MIC ([14]; 48 hrs) was > 880 µM and the MIC ([16]; 22 h, 22 hrs) was > 880 µM. For the same molecule, the MIC ([16]; 48 h, 48 hrs) was > 880 µM, the MIC ([17]; 22 h, 22 hrs) was > 880 µM and the MIC ([17]; 48 h, 48 hrs) was > 880 µM. For the same molecule, the MIC ([18]; 22 hrs) was > 880 µM, the MIC ([18]; 48 hrs) was > 880 µM and the MIC ([20]; 22 h, 22 hrs) was > 880 µM. For the same molecule, the MIC ([20]; 48 h, 48 hrs) was > 880 µM.

In the case of `CCCCCCCCCCCCCCOCCOCCOCCOCCO` [M4, Tetraethylene Glycol Monotetradecyl Ether], the MIC ([1]; 22 h, 22 hrs) is reported as 110 µM (≈ 43 µg/mL), the MIC ([1]; 48 h, 48 hrs) is reported as 110 µM (≈ 43 µg/mL) and the MIC ([4]; 22 hrs) is reported as 55 µM (≈ 21.5 µg/mL). For the same molecule, the MIC ([4]; 48 hrs) was 110 µM (≈ 43 µg/mL), the MIC ([5]; 22 hrs) was > 880 µM and the MIC ([5]; 48 hrs) was > 880 µM. For the same molecule, the MIC ([7]; 22 hrs) was > 880 µM, the MIC ([7]; 48 hrs) was > 880 µM and the MIC [21] was < 220 µM. The MIC ([10]; 22 hrs) was > 880 µM, the MIC ([10]; 48 hrs) was > 880 µM and the MIC ([12]; 22 hrs) was 220 µM (≈ 85.9 µg/mL). For the same molecule, the MIC ([12]; 48 hrs) was 220 µM (≈ 85.9 µg/mL), the MIC ([13]; 22 hrs) was 440 µM (≈ 172 µg/mL) and the MIC ([13]; 48 hrs) was > 880 µM. For the same molecule, the MIC ([14]; 22 hrs) was > 880 µM, the MIC ([14]; 48 hrs) was > 880 µM and the MIC ([16]; 22 h, 22 hrs) was 55 µM (≈ 21.5 µg/mL). The MIC ([16]; 48 h, 48 hrs) was 55 µM (≈ 21.5 µg/mL), the MIC ([17]; 22 h, 22 hrs) was > 880 µM and the MIC ([17]; 48 h, 48 hrs) was > 880 µM. For the same molecule, the MIC ([18]; 22 hrs) was 220 µM (≈ 85.9 µg/mL), the MIC ([18]; 48 hrs) was 220 µM (≈ 85.9 µg/mL) and the MIC ([20]; 22 h, 22 hrs) was 27.5 µM (≈ 10.7 µg/mL). For the same molecule, the MIC ([20]; 48 h, 48 hrs) was 27.5 µM (≈ 10.7 µg/mL).
